Data as given in US11059832B2, “HPK1 inhibitors and methods of using same” (University Health Network, priority 2015, dated 2021).

Tests used:
LCK = target: T1, LCK (Homo sapiens, UniProt P06239); assay: LCK inhibition, FRET based Z'-LYTE Kinase Assay; format: biochemical; conditions: 25 nM LCK, 180 μM ATP; read-out: IC50 Range Lck
T1 construct: purchased Invitrogen P3043
Procedure: FLT3 and LCK compound inhibition were determined using FRET based Z′-LYTE Kinase Assay Kit with Tyrosine 2 peptide as the substrate (Invitrogen cat #PV3191). […] The % inhibition values were determined according to the manufacturer's directions and IC50 values were obtained using a non-linear 4 point logistic curve fit (XLfit4, IDBS).

CT26 WT colon carcinoma = assay: Syngeneic CT26 cell line xenograft model; format: in vivo; conditions: for Survival (tumour size <1500 mm^3 at day 21): 8 animals
Procedure: Six to eight week old female BALB/c mice were purchased from Jackson Laboratories and received and acclimated at the MaRS-TMDT Animal Resources Centre for 1 week prior to the start of the experiment. […] Mice were housed in microisolator cages and maintained in an environment with a 12 h light cycle at 20-22° C. and 40-60% humidity. On the day of implantation, CT26 cells were harvested and re-suspended with serum free RPMI1640 to a concentration of 1×10^7/mL and each mouse was injected subcutaneously with a volume of 0.1 mL containing 1×10^6 CT26 cells in the right rear flank. […] Toxicity was evaluated by body weight measurements and clinical observations. Tumour measurements and body weights were taken three times per week.
According to University Health Network (UHN) Animal Use Protocols (AUPs), mice in efficacy experiments should be sacrificed when the tumour size is above 1500 mm^3 or if the bodyweight of the animal decreases or if the animals are displaying clinical signs that require termination for humane reasons. […] A tumour size of <1500 mm^3 at day 21 was used as a cutoff to represent survival.

human HPK1 (MAP4K1) = target: T2, human HPK1 (MAP4K1) (Homo sapiens, UniProt Q92918); assay: HPK1 inhibition assay (indirect ELISA); format: biochemical; conditions: GST-HPK1 0.6 nM, 12 μM ATP; read-out: IC50 Range HPK1
T2 construct: human HPK1 (aa 1-346); purchased Invitrogen PV6355
T2 sequence (Q92918 1-346): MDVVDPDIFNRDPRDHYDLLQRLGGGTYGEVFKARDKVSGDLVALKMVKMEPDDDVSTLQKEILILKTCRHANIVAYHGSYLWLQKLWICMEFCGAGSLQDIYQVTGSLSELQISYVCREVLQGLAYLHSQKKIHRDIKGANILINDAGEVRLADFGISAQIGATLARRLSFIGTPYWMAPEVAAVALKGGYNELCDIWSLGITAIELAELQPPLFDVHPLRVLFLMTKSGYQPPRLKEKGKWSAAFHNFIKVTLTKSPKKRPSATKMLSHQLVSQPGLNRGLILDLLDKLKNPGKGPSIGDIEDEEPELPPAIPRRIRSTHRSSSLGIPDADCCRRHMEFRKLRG
How it was run: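 GST-tagged human HPK1 (aa 1-346, 0.6 nM) phosphorylated MBP-coated wells with 12 μM ATP in MOPS pH 7.2/Mg2+ buffer for 30 min after 15-min compound preincubation; phospho-Thr detected by antibody ELISA with TMB, 450 nm. Tested at 10 μM or 10-point titration (typically 50-0.1 μM); IC50 by 4-parameter logistic fit.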

[1] = tested on: SLP-76 serine 376 phosphorylation in α-CD3 stimulated Jurkat E6.1 cells; assay: In vitro phosphorylation assay, SLP-76 Ser376 (immunoblot); format: cell-based; conditions: Homo sapiens, 4 h pretreatment, substantive = >75% inhibition as estimated by immunoblot analysis, read-out: SLP76 S376 Phosphorylation Onset-Substantive* Inhibition
Procedure: Jurkat E6.1 cells were obtained from American Type Culture Collection (ATCC, Manassas, Va.), and maintained according to the supplier's instructions. Cells were washed three times and starved in RPMI 1640 medium supplemented with 0.5% fetal calf serum for 18 h at 37° C. Serum starved cells were pretreated with the indicated concentration of inhibitor for 4 hours before stimulation with 10 μg/ml α-CD3 antibody (BioLegend, Inc., San Diego, Calif.) for 10 min at 37° C. The cells were washed once in phosphate-buffered saline (pH 7.4) containing 10 mm sodium pyrophosphate, 10 mm sodium fluoride, 10 mm EDTA, and 1 mm sodium orthovanadate. Protein lysates were prepared using ice-cold radioimmunoprecipitation assay (RIPA) lysis buffer. A total of 100 μg of cell lysate was loaded onto Bis-Tris gels (Life Technologies, Carlsbad, Calif.) with full-range molecular weight marker as a size reference, and resolved by SDS-PAGE electrophoresis. Proteins were transferred to PVDF membrane (Millipore, Billerica, Mass.), blocked and probed with antibodies for phospho-SLP-76 (Ser376) (rabbit polyclonal #13177; Cell Signaling Technology Inc., Danvers, Mass.), SLP-76 (rabbit polyclonal #4958; Cell Signaling Technology Inc., Danvers, Mass.), phospho-ERK (mouse monoclonal sc-7383; Santa Cruz Biotechnology Inc., Santa Cruz, Calif.) and ERK1/2 (rabbit polyclonal 06-182; Millipore, Billerica, Mass.). Secondary antibodies were diluted 1 in 15,000 and incubated for 1 h at rt. Protein bands were visualized and quantified using Odyssey near infrared imager (LI-COR, Lincoln, Nebr.).
Table 2 below lists effects of representative compounds of the present invention against SLP-76 serine 376 phosphorylation and ERK1/2 T202/Y204 phosphorylation in α-CD3 stimulated Jurkat E6.1 cells.

T1 sequence (P06239 whole entry, species assumed): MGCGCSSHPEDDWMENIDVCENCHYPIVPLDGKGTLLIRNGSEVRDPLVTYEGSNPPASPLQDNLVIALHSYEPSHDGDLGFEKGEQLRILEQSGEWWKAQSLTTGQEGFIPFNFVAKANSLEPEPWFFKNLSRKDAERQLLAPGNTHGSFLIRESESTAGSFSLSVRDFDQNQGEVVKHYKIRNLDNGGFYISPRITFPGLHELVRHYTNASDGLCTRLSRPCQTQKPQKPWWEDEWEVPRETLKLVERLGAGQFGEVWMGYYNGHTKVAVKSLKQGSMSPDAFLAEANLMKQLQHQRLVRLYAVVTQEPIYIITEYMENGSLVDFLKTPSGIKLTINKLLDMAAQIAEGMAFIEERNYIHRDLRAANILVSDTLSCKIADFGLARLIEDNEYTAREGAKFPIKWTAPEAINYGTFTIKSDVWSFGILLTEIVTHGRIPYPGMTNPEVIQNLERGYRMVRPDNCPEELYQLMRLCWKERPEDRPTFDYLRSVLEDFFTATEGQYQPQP

CN1CCN(c2ccc3nc(-c4c(N)c5ccsc5[nH]c4=O)[nH]c3c2)CC1 [Example A1, 4-amino-5-(6-(4-methylpiperazin-1-yl)-1H-benzo[d]imidazol-2-yl)thieno[2,3-b]pyridin-6(7H)-one]
IC50 (LCK): 0.05 to 0.5 µM | Tumour growth inhibition (TGI) (CT26 WT colon carcinoma; 75 mg/kg QD PO for 21 days, day 21, BALB/c mice): 44% | Survival (tumour size <1500 mm^3 at day 21) (CT26 WT colon carcinoma; 75 mg/kg/day Example A1 arm): 25% | Tumour growth inhibition (TGI) (CT26 WT colon carcinoma; 150 mg/kg QD PO Example A1 combined with 150 μg anti-PD-1 antibody IP day 0, 3, 6 and 10, day 21): 86% | Tumour growth inhibition (TGI) (CT26 WT colon carcinoma; 150 mg/kg QD PO for 21 days, day 21, BALB/c mice): 64% | Survival (tumour size <1500 mm^3 at day 21) (CT26 WT colon carcinoma; 150 mg/kg/day Example A1 and anti-PD-1 arm): 87.5% | Survival (tumour size <1500 mm^3 at day 21) (CT26 WT colon carcinoma; 150 mg/kg/day Example A1 arm): 37.5% | Tolerability (body weight, clinical signs) (CT26 WT colon carcinoma; 75 and 150 mg/kg QD PO 21 days, BALB/c mice, all animals gaining weight, none terminated due to clinical signs): well tolerated | IC50 (human HPK1 (MAP4K1)): ≤ 0.05 µM | IC75 [1]: 0.3 to 1 µM
